Tests used:
Assay in all cases: relative viability (nuclei count vs DMSO), 5 days (fraction); higher = more cells survive
EMC-BAC-2 = test system: EMC-BAC-2
Summary of the method: (§1)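 Relative viability was taken as the ratio of nuclei in treated wells to nuclei in vehicle wells. Lung cancer cell lines in 1536-well plates received compounds by pin tool one day after seeding, either one drug alone or a fixed anchor-drug dose plus five library-drug doses (not always all listed) in √10 steps. Nuclei were counted on 4× images after 5 days of treatment, and values are medians of duplicate plates.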

EPLC-272H = test system: EPLC-272H
Summary of the method: as §1

HCC-78 = test system: HCC-78
Summary of the method: as §1

HCC-827 = test system: HCC-827
Summary of the method: as §1

LCLC-103H = test system: LCLC-103H
Summary of the method: as §1

LK-2 = test system: LK-2
Summary of the method: as §1

LOU-NH91 = test system: LOU-NH91
Summary of the method: as §1

LU99A = test system: LU99A
Summary of the method: as §1

LXF-289 = test system: LXF-289
Summary of the method: as §1

NCI-H1563 = test system: NCI-H1563
Summary of the method: as §1

NCI-H1666 = test system: NCI-H1666
Summary of the method: as §1

NCI-H1975 = test system: NCI-H1975
Summary of the method: as §1

NCI-H2085 = test system: NCI-H2085
Summary of the method: as §1

NCI-H2126 = test system: NCI-H2126
Summary of the method: as §1

NCI-H23 = test system: NCI-H23
Summary of the method: as §1

NCI-H2405 = test system: NCI-H2405
Summary of the method: as §1

NCI-H3122 = test system: NCI-H3122
Summary of the method: as §1

NCI-H322M = test system: NCI-H322M
Summary of the method: as §1

RERF-LC-KJ = test system: RERF-LC-KJ
Summary of the method: as §1

SK-LU-1 = test system: SK-LU-1
Summary of the method: as §1

SW 1573 = test system: SW 1573
Summary of the method: as §1

`Oc1nc(-c2ccc(C(F)(F)F)cc2)nc2c1CSCC2` [XAV939] + C[C@]1(O)C[C@@H](c2nc(-c3ccc4ccc(-c5ccccc5)nc4c3)c3c(N)nccn32)C1 [Linsitinib] (partner 1 µM) gave a relative viability (EMC-BAC-2; first compound 0.08 µM) of 0.868, a relative viability (EMC-BAC-2; first compound 0.253 µM) of 0.705 and a relative viability (EMC-BAC-2; first compound 0.8 µM) of 0.711. It also gave a relative viability (EMC-BAC-2; first compound 2.53 µM) of 0.511, a relative viability (EPLC-272H; first compound 0.08 µM) of 1.3 and a relative viability (EPLC-272H; first compound 0.253 µM) of 1.08. The relative viability (EPLC-272H; first compound 0.8 µM) was 1.18, the relative viability (EPLC-272H; first compound 2.53 µM) was 1.09 and the relative viability (HCC-78; first compound 0.08 µM) was 0.59. For the same molecule, the relative viability (HCC-78; first compound 0.253 µM) was 0.448, the relative viability (HCC-78; first compound 0.8 µM) was 0.616 and the relative viability (HCC-78; first compound 2.53 µM) was 0.443. It also gave a relative viability (HCC-827; first compound 0.08 µM) of 0.995, a relative viability (HCC-827; first compound 0.253 µM) of 0.91 and a relative viability (HCC-827; first compound 0.8 µM) of 0.952. For the same molecule, the relative viability (HCC-827; first compound 2.53 µM) was 0.942, the relative viability (LCLC-103H; first compound 0.08 µM) was 1.05 and the relative viability (LCLC-103H; first compound 0.253 µM) was 0.943. For the same molecule, the relative viability (LCLC-103H; first compound 0.8 µM) was 1.19, the relative viability (LCLC-103H; first compound 2.53 µM) was 1.02 and the relative viability (LK-2; first compound 0.08 µM) was 0.514. It also gave a relative viability (LK-2; first compound 0.253 µM) of 0.499, a relative viability (LK-2; first compound 0.8 µM) of 0.42 and a relative viability (LK-2; first compound 2.53 µM) of 0.457. For the same molecule, the relative viability (LOU-NH91; first compound 0.08 µM) was 0.903, the relative viability (LOU-NH91; first compound 0.253 µM) was 0.842 and the relative viability (LOU-NH91; first compound 0.8 µM) was 0.996. For the same molecule, the relative viability (LOU-NH91; first compound 2.53 µM) was 0.911, the relative viability (LU99A; first compound 0.08 µM) was 0.556 and the relative viability (LU99A; first compound 0.253 µM) was 0.446. The relative viability (LU99A; first compound 0.8 µM) was 0.505, the relative viability (LU99A; first compound 2.53 µM) was 0.44 and the relative viability (LXF-289; first compound 0.08 µM) was 0.991. The relative viability (LXF-289; first compound 0.253 µM) was 0.954, the relative viability (LXF-289; first compound 0.8 µM) was 0.975 and the relative viability (LXF-289; first compound 2.53 µM) was 0.952. The relative viability (NCI-H1563; first compound 0.08 µM) was 1.2, the relative viability (NCI-H1563; first compound 0.253 µM) was 1.01 and the relative viability (NCI-H1563; first compound 0.8 µM) was 1.07. The relative viability (NCI-H1563; first compound 2.53 µM) was 0.871, the relative viability (NCI-H1666; first compound 0.08 µM) was 0.816 and the relative viability (NCI-H1666; first compound 0.253 µM) was 0.598. It also gave a relative viability (NCI-H1666; first compound 0.8 µM) of 0.712, a relative viability (NCI-H1666; first compound 2.53 µM) of 0.568 and a relative viability (NCI-H1975; first compound 0.08 µM) of 0.854. It also gave a relative viability (NCI-H1975; first compound 0.253 µM) of 0.711, a relative viability (NCI-H1975; first compound 0.8 µM) of 0.97 and a relative viability (NCI-H1975; first compound 2.53 µM) of 0.673. For the same molecule, the relative viability (NCI-H2085; first compound 0.08 µM) was 0.811, the relative viability (NCI-H2085; first compound 0.253 µM) was 0.771 and the relative viability (NCI-H2085; first compound 0.8 µM) was 0.91. It also gave a relative viability (NCI-H2085; first compound 2.53 µM) of 0.888, a relative viability (NCI-H2126; first compound 0.08 µM) of 0.727 and a relative viability (NCI-H2126; first compound 0.253 µM) of 0.61. The relative viability (NCI-H2126; first compound 0.8 µM) was 0.672, the relative viability (NCI-H2126; first compound 2.53 µM) was 0.642 and the relative viability (NCI-H23; first compound 0.08 µM) was 0.612. For the same molecule, the relative viability (NCI-H23; first compound 0.253 µM) was 0.559, the relative viability (NCI-H23; first compound 0.8 µM) was 0.647 and the relative viability (NCI-H23; first compound 2.53 µM) was 0.433. It also gave a relative viability (NCI-H2405; first compound 0.08 µM) of 1.01, a relative viability (NCI-H2405; first compound 0.253 µM) of 0.863 and a relative viability (NCI-H2405; first compound 0.8 µM) of 0.96. For the same molecule, the relative viability (NCI-H2405; first compound 2.53 µM) was 0.801, the relative viability (NCI-H3122; first compound 0.08 µM) was 1.02 and the relative viability (NCI-H3122; first compound 0.253 µM) was 0.986. The relative viability (NCI-H3122; first compound 0.8 µM) was 0.951, the relative viability (NCI-H3122; first compound 2.53 µM) was 0.557 and the relative viability (NCI-H322M; first compound 0.08 µM) was 0.966. For the same molecule, the relative viability (NCI-H322M; first compound 0.253 µM) was 0.872, the relative viability (NCI-H322M; first compound 0.8 µM) was 0.909 and the relative viability (NCI-H322M; first compound 2.53 µM) was 0.618. It also gave a relative viability (RERF-LC-KJ; first compound 0.08 µM) of 0.881, a relative viability (RERF-LC-KJ; first compound 0.253 µM) of 0.765 and a relative viability (RERF-LC-KJ; first compound 0.8 µM) of 0.789. The relative viability (RERF-LC-KJ; first compound 2.53 µM) was 0.661, the relative viability (SK-LU-1; first compound 0.08 µM) was 1.2 and the relative viability (SK-LU-1; first compound 0.253 µM) was 1.03. The relative viability (SK-LU-1; first compound 0.8 µM) was 1.02, the relative viability (SK-LU-1; first compound 2.53 µM) was 1.07 and the relative viability (SW 1573; first compound 0.08 µM) was 0.78. It also gave a relative viability (SW 1573; first compound 0.253 µM) of 0.675, a relative viability (SW 1573; first compound 0.8 µM) of 0.739 and a relative viability (SW 1573; first compound 2.53 µM) of 0.635.
